From article PMC10584170, “Machine learning-based phenotypic imaging to characterise the targetable biology of Plasmodium falciparum male gametocytes for the development of transmission-blocking antimalarials” (PLOS Pathogens, 2023)
Where two headings read alike, the source gives them in different places.

How the values were obtained:
HepG2 cells = experiment: HepG2 cytotoxicity counter-screen; details: cytotoxic activity against HepG2 cells
[1] = test system: P. falciparum male gametocytes; experiment: P. falciparum Dual Gamete Formation Assay (PfDGFA), male readout (exflagellation); format: cell-based, Plasmodium falciparum NF54; details: for HitlevelM: number of replicates with >50% inhibition in the male readout; for Selectivity Ratio M: HepG2 Tox50 versus male IC50; for IC50: PfDGFA, 24 h incubation with gametocytes before induction, exflagellation readout, read-out: Male IC50
Outline: (§1)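 Mature NF54 gametocytes (day 14) were incubated with compound for 24 h at 37°C under 1% O2/3% CO2, then triggered with xanthurenic acid ookinete medium plus Cy3-anti-Pfs25. Exflagellation was imaged by brightfield; after a further 24 h at 28°C, Pfs25-positive female gametes were imaged by fluorescence and counted by automated image analysis.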

[2] = test system: P. falciparum female gametocytes; experiment: P. falciparum Dual Gamete Formation Assay (PfDGFA), female readout (Pfs25-positive female gametes); format: cell-based, Plasmodium falciparum NF54; details: for HitlevelF: number of replicates with >50% inhibition in the female readout; for Selectivity ratio F: HepG2 Tox50 versus female IC50; for IC50: PfDGFA, 24 h incubation with gametocytes before induction, female gamete readout, read-out: Female IC50
Outline: as §1

[3] = 2µM, 24h preincubation with gametocytes prior to induction of gametogenesis, average of replicates
[4] = 2µM, 24h preincubation with gametocytes prior to induction of gametogenesis, replicate R1
[5] = 2µM, 24h preincubation with gametocytes prior to induction of gametogenesis, replicate R3
[6] = 2µM, 24h preincubation with gametocytes prior to induction of gametogenesis, replicate R4
[7] = 2µM, 24h preincubation with gametocytes, average of replicates
[8] = 2µM, 24h preincubation with gametocytes, replicate R1
[9] = 2µM, 24h preincubation with gametocytes, replicate R3
[10] = 2µM, 24h preincubation with gametocytes, replicate R4
[11] = Plasmodium falciparum, 2µM, 24h preincubation with gametocytes, average of replicates, read-out: Average inhibition male (%)
[12] = Plasmodium falciparum, 2µM, 24h preincubation with gametocytes, replicate R1, read-out: % inhibition male (individual replicates) R1
[13] = Plasmodium falciparum, 2µM, 24h preincubation with gametocytes, replicate R2, read-out: % inhibition male (individual replicates) R2
[14] = Plasmodium falciparum, 2µM, 24h preincubation with gametocytes, replicate R3, read-out: % inhibition male (individual replicates) R3
[15] = Plasmodium falciparum, 2µM, 24h preincubation with gametocytes, replicate R4, read-out: % inhibition male (individual replicates) R4
[16] = Plasmodium falciparum, 2µM, 24h preincubation with gametocytes, average of replicates, read-out: Average inhibition female (%)
[17] = Plasmodium falciparum, 2µM, 24h preincubation with gametocytes, replicate R1, read-out: % inhibition female (individual replicates) R1
[18] = Plasmodium falciparum, 2µM, 24h preincubation with gametocytes, replicate R2, read-out: % inhibition female (individual replicates) R2
[19] = Plasmodium falciparum, 2µM, 24h preincubation with gametocytes, replicate R3, read-out: % inhibition female (individual replicates) R3
[20] = Plasmodium falciparum, 2µM, 24h preincubation with gametocytes, replicate R4, read-out: % inhibition female (individual replicates) R4
[21] = PfDGFA at 2µM, 24h preincubation with gametocytes, average of replicates
[22] = PfDGFA at 2µM, 24h preincubation with gametocytes, replicate R1
[23] = PfDGFA at 2µM, 24h preincubation with gametocytes, replicate R3
[24] = PfDGFA at 2µM, 24h preincubation with gametocytes, replicate R4

Row | SMILES | IC50 [1] | IC50 [2] | Tox50 (HepG2 cells) | Selectivity Ratio M [1] | Selectivity ratio F [2] | Average inhibition male (%) [1, 7] | % inhibition male (individual replicates) R1 [1, 8] | % inhibition male (individual replicates) R4 [1, 10] | Average inhibition female (%) [2, 7] | % inhibition female (individual replicates) R1 [2, 8] | % inhibition female (individual replicates) R3 [2, 9] | % inhibition female (individual replicates) R4 [2, 10] | Average inhibition male (%) [1, 21] | % inhibition male (individual replicates) R1 [1, 22] | % inhibition male (individual replicates) R3 [1, 23] | % inhibition male (individual replicates) R4 [1, 24] | HitlevelM ([1]; 2µM) | Average inhibition female (%) [2, 21] | % inhibition female (individual replicates) R1 [2, 22] | % inhibition female (individual replicates) R3 [2, 23] | other results
1 | CCOc1cc(OCC)c2ccccc2c1CNCCCCCCNCc1c(OCC)cc(OCC)c2ccccc12.CS(=O)(=O)O [TCMDC-137982] | 1060 nM | 1700 nM | 2.84 µM | 2.69 | 1.67 | 97.2% | 95.9% | 100.2% | 82.9% | 76.1% | 92.8% | 83.8% |  |  |  |  |  |  |  |  | % inhibition male (individual replicates) R3 [1, 9]: 96.2%
2 | CC(C)(C)c1ccc(-c2nc3c(ccc4nc(N)nc(N)c43)[nH]2)cc1.Cl [TCMDC-137984] |  |  | 3.25 µM | 17.94 | 3.35 |  |  |  |  |  |  |  |  |  |  |  |  |  |  |  | inhibition at 2 µM [1, 11]: 99.4%; inhibition at 2 µM [1, 12]: 99.9%; inhibition at 2 µM [1, 13]: 99.6%; inhibition at 2 µM [1, 14]: 98%; inhibition at 2 µM [1, 15]: 100%; IC50 ([1]; Plasmodium falciparum): 180 nM; inhibition at 2 µM [2, 16]: 42.3%; inhibition at 2 µM [2, 17]: 35.1%; inhibition at 2 µM [2, 18]: 50%; inhibition at 2 µM [2, 19]: 42.4%; inhibition at 2 µM [2, 20]: 41.7%; IC50 ([2]; Plasmodium falciparum): 970 nM
3 | Cn1c(-c2ccccc2)cc2c3c(N)nc(N)nc3ccc21 [TCMDC-137985] | 1880 nM | 3300 nM | 4.6 µM | 2.45 | 1.39 |  |  |  |  |  |  |  | 67.4% | 74.3% | 56.6% | 64.0% | 4 | 1.3% | 15.4% | -11.7% | % inhibition female (individual replicates) R4 [2, 24]: 3.6%; HitlevelF ([2]; 2µM): 0
4 | CCCCCCCCN1CCN(CCCCCCNc2c3ccccc3nc3ccccc23)CC1.Cl [TCMDC-138015] | 1760 nM | 1910 nM | 4.12 µM | 2.34 | 2.15 |  |  |  |  |  |  |  | 63.5% | 58.8% | 66.4% | 81.8% | 3 | 83.0% | 79.8% | 90.0% | % inhibition female (individual replicates) R4 [2, 24]: 82.3%; HitlevelF ([2]; 2µM): 4
5 | Cc1ccc(S(=O)(=O)N(CCCNCc2cccc(O)c2)c2ccccc2)cc1 [TCMDC-138022] |  |  | 31.57 µM | 100.82 | 4.12 |  |  |  |  |  |  |  |  |  |  |  |  |  |  |  | inhibition at 2 µM [1, 11]: 98.1%; inhibition at 2 µM [1, 12]: 102%; inhibition at 2 µM [1, 13]: 101%; inhibition at 2 µM [1, 14]: 97.3%; inhibition at 2 µM [1, 15]: 91.8%; IC50 ([1]; Plasmodium falciparum): 310 nM; inhibition at 2 µM [2, 16]: 63.8%; inhibition at 2 µM [2, 17]: 52.6%; inhibition at 2 µM [2, 18]: 60%; inhibition at 2 µM [2, 19]: 91.9%; inhibition at 2 µM [2, 20]: 50.6%; IC50 ([2]; Plasmodium falciparum): 7660 nM
6 | CCN(CC)CC(O)CNc1c2ccc([N+](=O)[O-])cc2nc2cc(OC)c(OC)cc12.Cl (centres unmarked) [TCMDC-138079] | 420 nM | 3070 nM | 2.63 µM | 6.3 | 0.86 | 95.0% | 93.0% | 92.3% | 25.5% | 28.2% | 21.9% | 25.2% |  |  |  |  |  |  |  |  | 
7 | COc1cc2nc(NCc3cccc(CNC(=O)c4ccc(-c5ccc(C(C)=O)cc5)cc4)c3)nc(N)c2cc1OC.O=C(O)C(F)(F)F [TCMDC-138177] | 1630 nM | 2020 nM | 6.34 µM | 3.88 | 3.13 |  |  |  |  |  |  |  | 65.2% | 54.7% | 22.4% | 95.6% | 3 | 43.1% | 31.2% | 17.8% | % inhibition female (individual replicates) R4 [2, 24]: 57.2%; HitlevelF ([2]; 2µM): 2

The next lines start with results.

Row | IC50 [1] | IC50 [2] | SMILES | Tox50 (HepG2 cells) | Selectivity Ratio M [1] | Selectivity ratio F [2] | Average inhibition male (%) [1, 7] | % inhibition male (individual replicates) R1 [1, 8] | % inhibition male (individual replicates) R4 [1, 10] | Average inhibition female (%) [2, 7] | % inhibition female (individual replicates) R1 [2, 8] | % inhibition female (individual replicates) R3 [2, 9] | % inhibition female (individual replicates) R4 [2, 10] | Average inhibition male (%) [1, 21] | % inhibition male (individual replicates) R1 [1, 22] | % inhibition male (individual replicates) R3 [1, 23] | % inhibition male (individual replicates) R4 [1, 24] | HitlevelM ([1]; 2µM) | Average inhibition female (%) [2, 21] | % inhibition female (individual replicates) R1 [2, 22] | % inhibition female (individual replicates) R3 [2, 23] | other results
8 | 1660 nM | 1000 nM | CCOCn1c(-c2ccccc2)cc2c3c(N)nc(N)nc3ccc21 [TCMDC-137979] | 1.17 µM | 0.71 | 1.17 |  |  |  |  |  |  |  |  |  |  |  |  |  |  |  | Average inhibition male (%) [1, 3]: 42.1%; % inhibition male (individual replicates) R1 [1, 4]: 55.5%; % inhibition male (individual replicates) R3 [1, 5]: 46.9%; % inhibition male (individual replicates) R4 [1, 6]: 49.0%; HitlevelM ([1]; 2µM, 24h preincubation): 1; Average inhibition female (%) [2, 3]: 82.0%; % inhibition female (individual replicates) R1 [2, 4]: 76.5%; % inhibition female (individual replicates) R3 [2, 5]: 82.3%; % inhibition female (individual replicates) R4 [2, 6]: 83.9%; HitlevelF ([2]; 2µM, 24h preincubation): 4
9 | 680 nM | 1560 nM | CCOC(=O)c1cc2c(CCN3C(=O)c4ccccc4C3=O)cn(C)c2cc1-c1ccncc1 [TCMDC-138099] | 1.57 µM | 2.3 | 1 | 101.6% | 102.0% | 102.4% | 93.8% | 94.3% | 100.9% | 92.0% |  |  |  |  |  |  |  |  | % inhibition male (individual replicates) R3 [1, 9]: 99.5%
